Columns and labels:
Plasmodium falciparum = assay: Antiplasmodial activity against chloroquine-resistant Plasmodium falciparum W2; assay type: functional, organism-based
Vero = assay: Cytotoxicity against African green monkey Vero cells assessed as reduction in cell viability; assay type: cell-based; details: Chlorocebus sabaeus
[1] = Selectivity Index, ratio of IC50 for African green monkey Vero cells to IC50 for chloroquine-resistant Plasmodium falciparum W2; assay type: toxicity; details: read-out: Ratio IC50

SMILES	IC50 (Plasmodium falciparum) [µM]	IC50 (Vero) [µM]	selectivity ratio [1]
CCOC(=O)C1Cc2c([nH]c3ccccc23)[C@@H](C)N1Cc1cn(CCCNc2ccnc3cc(Cl)ccc23)nn1 (some centres not stated)	1.37		
O=C(O)c1ccc(Nc2ccnc3cc(Cl)ccc23)cc1	8.6		
CCOC(=O)C1Cc2c([nH]c3ccccc23)[C@@H](C)N1Cc1cn(-c2ccnc3cc(Cl)ccc23)nn1 (some centres not stated)	4.02		
O=C(CNc1ccnc2cc(Cl)ccc12)NNC(=O)C1Cc2c([nH]c3ccccc23)CN1 (configuration not stated)	4.4		
O=C(CCNc1ccnc2cc(Cl)ccc12)NNC(=O)C1Cc2c([nH]c3ccccc23)CN1 (configuration not stated)	3.1		
C[C@@H]1NC(C(=O)NNC(=O)CCCNc2ccnc3cc(Cl)ccc23)Cc2c1[nH]c1ccccc21 (some centres not stated)	3.4		
CCOC(=O)C1Cc2c([nH]c3ccccc23)CN1Cc1cn(-c2ccnc3cc(Cl)ccc23)nn1 (configuration not stated)	9.28		
O=C(CCCNc1ccnc2cc(Cl)ccc12)NNC(=O)C1Cc2c([nH]c3ccccc23)CN1 (configuration not stated)	3.1		
C[C@@H]1NC(C(=O)NNC(=O)CCCCCNc2ccnc3cc(Cl)ccc23)Cc2c1[nH]c1ccccc21 (some centres not stated)	1.8		
CCOC(=O)C1Cc2c([nH]c3ccccc23)CN1Cc1cn(CCCNc2ccnc3cc(Cl)ccc23)nn1 (configuration not stated)	0.49	246	496
O=C(NNC(=O)C1Cc2c([nH]c3ccccc23)CN1)c1ccc(Nc2ccnc3cc(Cl)ccc23)cc1 (configuration not stated)	0.61	95.1	156
C[C@@H]1NC(C(=O)NNC(=O)CNc2ccnc3cc(Cl)ccc23)Cc2c1[nH]c1ccccc21 (some centres not stated)	5		
CCOC(=O)C1Cc2c([nH]c3ccccc23)[C@@H](C)N1Cc1cn(CCNc2ccnc3cc(Cl)ccc23)nn1 (some centres not stated)	0.93		
C#CCN1C(C(=O)OCC)Cc2c([nH]c3ccccc23)[C@H]1C (some centres not stated)	9		
C[C@H]1NC(C(=O)NNC(=O)c2ccc(Nc3ccnc4cc(Cl)ccc34)cc2)Cc2c1[nH]c1ccccc21 (some centres not stated)	1.21	103	84.9
C[C@@H]1NC(C(=O)NNC(=O)CCNc2ccnc3cc(Cl)ccc23)Cc2c1[nH]c1ccccc21 (some centres not stated)	2		
C#CCN1Cc2[nH]c3ccccc3c2CC1C(=O)OCC (configuration not stated)	4.3		
CCOC(=O)C1Cc2c([nH]c3ccccc23)CN1Cc1cn(CCNc2ccnc3cc(Cl)ccc23)nn1 (configuration not stated)	0.86	268	312
O=C(CCCCCNc1ccnc2cc(Cl)ccc12)NNC(=O)C1Cc2c([nH]c3ccccc23)CN1 (configuration not stated)	2.2		
